Results on four compounds are retold here after paper PMC7554770, “Develop a High-Throughput Screening Method to Identify C-P4H1 (Collagen Prolyl 4-Hydroxylase 1) Inhibitors from FDA-Approved Chemicals” (International Journal of Molecular Sciences, 2020).

Type in all cases: biochemical
For test [1], the target named is T1, C-P4H1 (collagen prolyl 4-hydroxylase 1; P4HA1 alpha subunit) (Homo sapiens, UniProt P13674).
T1 construct: Flag-tagged P4HA1 and P4HB co-expressed in HEK-293FT cells, purified C-P4H1 tetramer; with P4HB (protein disulfide isomerase, beta subunit)
Briefly: Succinate-Glo Hydroxylase luminescence assay, dose response, with no-enzyme control.

The target in test [2] is T1, C-P4H1 (collagen prolyl 4-hydroxylase 1; P4HA1 alpha subunit). Described as above. The source holds these as a separate data set.
Test [3] shares this target. Briefly: Succinate-Glo Hydroxylase assay, varied co-substrate concentration.

A word on the IC50: it is the point on the concentration scale where inhibition reaches its midpoint. Read a low IC50 as greater potency in that assay.

T1 sequence (P13674 18-534): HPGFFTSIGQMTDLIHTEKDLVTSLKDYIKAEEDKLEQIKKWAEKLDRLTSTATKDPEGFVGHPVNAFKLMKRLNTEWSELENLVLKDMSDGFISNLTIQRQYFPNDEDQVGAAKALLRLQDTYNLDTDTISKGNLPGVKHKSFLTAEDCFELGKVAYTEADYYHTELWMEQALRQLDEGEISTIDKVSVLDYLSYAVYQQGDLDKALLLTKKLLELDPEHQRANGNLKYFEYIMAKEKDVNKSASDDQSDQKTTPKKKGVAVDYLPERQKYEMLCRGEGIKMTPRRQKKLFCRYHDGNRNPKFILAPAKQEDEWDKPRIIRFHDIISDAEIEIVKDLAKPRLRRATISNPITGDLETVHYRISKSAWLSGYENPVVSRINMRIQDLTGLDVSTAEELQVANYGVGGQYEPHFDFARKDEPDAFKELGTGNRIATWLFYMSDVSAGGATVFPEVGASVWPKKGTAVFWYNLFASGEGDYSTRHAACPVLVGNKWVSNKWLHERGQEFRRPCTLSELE
T1 sequence (P07237 18-508 partner): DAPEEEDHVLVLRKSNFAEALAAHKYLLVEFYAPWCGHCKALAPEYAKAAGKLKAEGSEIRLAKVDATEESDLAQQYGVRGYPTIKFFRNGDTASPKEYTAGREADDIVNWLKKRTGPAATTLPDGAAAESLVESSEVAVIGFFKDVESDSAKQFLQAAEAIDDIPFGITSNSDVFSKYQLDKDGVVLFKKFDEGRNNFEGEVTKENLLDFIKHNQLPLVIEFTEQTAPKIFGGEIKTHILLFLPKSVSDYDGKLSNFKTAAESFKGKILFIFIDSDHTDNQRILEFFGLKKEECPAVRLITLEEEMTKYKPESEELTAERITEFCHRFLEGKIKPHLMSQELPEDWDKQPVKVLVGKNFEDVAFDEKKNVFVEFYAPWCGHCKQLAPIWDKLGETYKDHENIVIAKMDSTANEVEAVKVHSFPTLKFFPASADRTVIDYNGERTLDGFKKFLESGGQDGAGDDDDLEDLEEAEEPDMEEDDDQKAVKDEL

`CCOC(=O)c1ccc(O)c(O)c1` [DHB, ethyl-3,4-dihydroxybenzoic acid] displayed an IC50 in test [1] of approximately 20 µM.

Regarding `C[C@H](Cc1cc2c(c(C(N)=O)c1)N(CCCO)CC2)NCCOc1ccccc1OCC(F)(F)F` [Silodosin], in test [2], the “Succinate-Glo Hydroxylase luminescence assay, dose response, with no-enzyme cont” value was “Both drugs inhibited C-P4H1 activity in a dose-dependent manner (Figure 4B,D)”.

As to `Clc1ccccc1CN1CCc2sccc2C1` [Ticlopidine], the “Succinate-Glo Hydroxylase luminescence assay, dose response, with no-enzyme cont” value in test [2] was “indicating that Silodosin and Ticlopidine specifically inhibited the C-P4H1 activity in vitro”.

Regarding `O=C(O)CCC(=O)C(=O)O` [α-KG, α-ketoglutarate], in test [3], the “Succinate-Glo Hydroxylase assay, varied co-substrate concentration” value is “increased concentration of GPPG and α-KG induced luminescence assay in a dose-dependent manner”.
